Measured values: patent US20040044008A1, “Use of therapeutic benzamide derivatives” (priority 2000, published 2004)

| Compound | melting point [°C] |
| --- | --- |
| N#Cc1cc(CN2CCN(c3ccc(NC(=O)c4ccccc4-c4ccc(C(F)(F)F)cc4)cc3)CC2)ccc1F [Example 47, 4′-Trifluoromethyl-biphenyl-2-carboxylic acid [4-(4-(3-cyano-4-fluoro-benzyl)-piperazin-1-yl)-phenyl]-amide] | 168 to 170 |
| O=C(Nc1ccc(N2CCN(Cc3ccc4c(c3)OCO4)CC2)cc1)c1ccccc1-c1ccc(C(F)(F)F)cc1 [Example 48, 4′-Trifluoromethyl-biphenyl-2-carboxylic acid [4-(4-(3,4-methylenedioxy-benzyl)-piperazin-1-yl)-phenyl]-amide] | 189 to 191 |
| O=C(Nc1ccc(N2CCN(Cc3cccc([N+](=O)[O-])c3)CC2)cc1)c1ccccc1-c1ccc(C(F)(F)F)cc1 [Example 49, 4′-Trifluoromethyl-biphenyl-2-carboxylic acid [4-(4-(3-nitro-benzyl)-piperazin-1-yl)-phenyl]-amide] | 152 to 154 |
| NC(=O)c1cccc(CN2CCN(c3ccc(NC(=O)c4ccccc4-c4ccc(C(F)(F)F)cc4)cc3)CC2)c1 [Example 50, 4′-Trifluoromethyl-biphenyl-2-carboxylic acid {4-[4-(3-carbamoyl-benzyl)-piperazin-1-yl]-phenyl}-amide] | 199 to 201 |
| O=C(Nc1ccc(N2CCN(Cc3ccc(F)cc3)CC2)cc1)c1ccccc1-c1ccc(C(F)(F)F)cc1 [Example 52, 4′-Trifluoromethyl-biphenyl-2-carboxylic acid [4-[4-(4-fluoro-benzyl)-piperazin-1-yl]-phenyl]-amide] | 198 to 200 |
| COC(=O)c1cccc(CN2CCN(c3ccc(NC(=O)c4ccccc4-c4ccc(C(F)(F)F)cc4)cc3)CC2)c1 [Example 55, 4′-Trifluoromethyl-biphenyl-2-carboxylic acid [4-[4-(3-carbomethoxy-benzyl)-piperazin-1-yl]-phenyl]-amide] | 190 to 192 |

Now from value to compound:

| melting point [°C] | Compound |
| --- | --- |
| 183 to 185 | O=C(Nc1ccc(N2CCN(Cc3cnccn3)CC2)cc1)c1ccccc1-c1ccc(C(F)(F)F)cc1 [Example 58, 4′-Trifluoromethyl-biphenyl-2-carboxylic acid [4-(4-pyrazin-2-ylmethyl-piperazin-1-yl)-phenyl]-amide] |
| 118 to 120 | Cn1ccnc1CN1CCN(c2ccc(NC(=O)c3ccccc3-c3ccc(C(F)(F)F)cc3)cc2)CC1 [Example 60, 4′-Trifluoromethyl-biphenyl-2-carboxylic acid [4-[4-(1-methyl-1H-imidazol-2-ylmethyl)-piperazin-1-yl)-phenyl]-amide] |
| 207 to 209 | CCCN1CCN(c2ccc(NC(=O)c3ccccc3-c3ccc(C(F)(F)F)cc3)cc2)CC1 [Example 65, 4′-Trifluoromethyl-biphenyl-2-carboxylic acid [4-(4-propyl-piperazin-1-yl)-phenyl]-amide] |
| 181 to 183 | CC(=O)c1cccc(CN2CCN(c3ccc(NC(=O)c4ccccc4-c4ccc(C(F)(F)F)cc4)cc3)CC2)c1 [Example 66, 4′-Trifluoromethyl-biphenyl-2-carboxylic acid [4-(4-(3-acetyl-benzyl)-piperazin-1-yl)-phenyl]-amide] |
| 173 to 175 | O=C(Nc1ccc(N2CCN(Cc3ccco3)CC2)cc1)c1ccccc1-c1ccc(C(F)(F)F)cc1 [Example 67, 4′-Trifluoromethyl-biphenyl-2-carboxylic acid [4-(4-furan-2-ylmethyl-piperazin-1-yl)-phenyl]-amide] |
| 195 to 197 | COc1cccc(C(=O)Nc2ccc(N3CCN(Cc4ccc[nH]4)CC3)cc2)c1-c1ccc(C(C)C)cc1 [Example 68, 4′-Isopropyl-6-methoxy-biphenyl-2-carboxylic acid [4-(4-(1H-pyrrol-2-ylmethyl)-piperazin-1-yl)-phenyl]-amide] |
| 181 to 183 | O=C(Nc1ccc(N2CCN(Cc3cccs3)CC2)cc1)c1ccccc1-c1ccc(C(F)(F)F)cc1 [Example 70, 4′-Trifluoromethyl-biphenyl-2-carboxylic acid [4-(4-thiophen-2-ylmethyl-piperazin-1-yl)-phenyl]-amide] |
